From article PMC9024521, “4-Heteroaryl Substituted Amino-3,5-Dicyanopyridines as New Adenosine Receptor Ligands: Novel Insights on Structure-Activity Relationships and Perspectives” (Pharmaceuticals, 2022)

Legend:
hA2B AR [1] = target: T1, hA2B AR (Homo sapiens, UniProt P29275); test: cAMP assay in CHO cells expressing hA2B AR (stimulation of cAMP production); format: cell-based; settings: for Emax at 1 µM: CHO, 1 µM compound, in comparison with NECA (1 µM = 100%), read-out: Efficacy hA2B (cAMP assay) (converted); for EC50: hA2B CHO cells, mean ± SEM of four assays
T1 construct: host or cells: CHO cells
T1 sequence (P29275 1-332): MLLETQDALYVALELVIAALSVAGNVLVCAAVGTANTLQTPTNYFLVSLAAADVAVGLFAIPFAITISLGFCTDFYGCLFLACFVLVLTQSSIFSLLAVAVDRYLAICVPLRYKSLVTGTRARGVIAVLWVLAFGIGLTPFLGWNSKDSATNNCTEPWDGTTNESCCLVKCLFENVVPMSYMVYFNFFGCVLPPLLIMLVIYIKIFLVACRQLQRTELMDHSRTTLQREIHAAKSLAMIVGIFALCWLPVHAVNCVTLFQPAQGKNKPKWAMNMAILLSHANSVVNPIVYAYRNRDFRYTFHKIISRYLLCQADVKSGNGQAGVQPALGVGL
Experimental: (§1) The amino-3,5-dicyanopyridines 1–21 were tested for their affinity at hA1, hA2A and hA3 ARs, stably transfected in Chinese Hamster Ovary (CHO) cells. Moreover, they were also studied as hA2B agonists by evaluating their stimulatory effect on cAMP production in CHO cells, stably expressing the hA2B AR. […] Due to their interesting pan profile, both compounds 1 and 5 were evaluated as AR agonists also at the hA2A and hA3 subtypes.
(§2) CHO cells transfected with hA1, hA2A, hA2B and hA3 ARs (Perkin Elmer, Boston, MA, USA) were grown adherently and maintained in Dulbecco’s modified Eagle’s medium with nutrient mixture F12, containing 10% fetal calf serum, penicillin (100 U/mL), streptomycin (100 μg/mL), L-glutamine (2 mM) and geneticine (G418; 0.2 mg/mL), at 37 °C, in 5% CO2/95% air, until their use in cAMP assays. For membrane preparation, the culture medium was removed, and the cells were washed with phosphate-buffered saline and scraped off T75 flasks in ice-cold hypotonic buffer (5 mM Tris HCl, 1 mM EDTA, pH 7.4). The cell suspension was homogenized with a Polytron, centrifuged for 30 min at 40,000× g, at 4 °C, and the resulting membrane pellet was used for competition binding experiments.
(§3) CHO cells transfected with hAR subtypes were washed with phosphate-buffered saline, detached with tripsine and centrifuged for 10 min at 200× g. Cells were seeded in a 96-well white half-area microplate (Perkin Elmer, Boston, USA) in a stimulation buffer composed of Hank Balanced Salt Solution, 5 mM HEPES, 0.5 mM Ro 20–1724, 0.1% BSA. The cAMP levels were then quantified by using the AlphaScreen cAMP Detection Kit (Perkin Elmer, Boston, MA, USA), following the manufacturer’s instructions. At the end of the experiments, the plates were read with a Perkin Elmer EnSight Multimode Plate Reader.

hA3AR = target: T2, hA3AR (Homo sapiens, UniProt P0DMS8); test: Competition binding, [125I]AB-MECA, hA3 CHO cell membranes; settings: for Ki: displacement of [125I]AB-MECA, hA3 CHO cells, mean ± SEM of four assays; for inhibition at 1 µM: 1 µM compound, [125I]AB-MECA binding, read-out: I% hA3 (percentage of inhibition)
T2 construct: host or cells: CHO cells
T2 sequence (P0DMS8 1-318): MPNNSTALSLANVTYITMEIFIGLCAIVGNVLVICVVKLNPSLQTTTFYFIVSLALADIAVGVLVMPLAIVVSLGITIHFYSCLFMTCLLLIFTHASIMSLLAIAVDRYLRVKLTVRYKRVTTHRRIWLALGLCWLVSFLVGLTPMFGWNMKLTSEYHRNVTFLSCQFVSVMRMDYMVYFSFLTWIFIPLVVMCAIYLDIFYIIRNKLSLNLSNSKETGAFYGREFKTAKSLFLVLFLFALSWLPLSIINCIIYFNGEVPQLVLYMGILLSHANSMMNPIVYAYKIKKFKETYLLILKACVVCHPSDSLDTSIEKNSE
Experimental: as §2
(§4) All synthesized compounds were tested for their affinity to hA1, hA2A and hA3 ARs. Competition experiments to hA1AR were carried out by incubating 1 nM [^3H]-8-cyclopentyl-1,3-dipropylxanthine ([^3H]-DPCPX) with membrane suspension (50 μg of protein/100 μL) and different concentrations of the examined compounds at 25 °C for 90 min in 50 mM Tris HCl, pH 7.4. Non-specific binding was defined as binding in the presence of 1 μM DPCPX and was always <10% of the total binding. Inhibition experiments to hA2A ARs were performed by incubating the radioligand [^3H]-4-(-2-[7-amino-2-{2-furyl}{1,2,4}triazolo{2,3-a} {1,3,5}triazin-5-yl-amino]ethyl)phenol ([^3H]-ZM241385) (1 nM) with the membrane suspension (50 μg of protein/100 μL) and different concentrations of the examined compounds for 60 min, at 4 °C, in 50 mM Tris HCl (pH 7.4), 10 mM MgCl2. Non-specific binding was determined in the presence of ZM241385 (1 μM) and was about 20% of the total binding. Competition binding experiments to A3ARs were carried out by incubating the membrane suspension (50 μg of protein/100 μL) with 0.5 nM [^125I]-N6-(4-aminobenzyl)-N-methylcarboxamidoadenosine ([^125I]-ABMECA) in the presence of different concentrations of the examined compounds for an incubation time of 120 min, at 4 °C, in 50 mM Tris HCl (pH 7.4), 10 mM MgCl2, 1 mM EDTA. Non-specific binding was defined as binding in the presence of 1 μM ABMECA and was always <10% of the total binding. Bound and free radioactivity were separated by filtering the assay mixture through Whatman GF/B glass-fiber filters, using a Brandel cell harvester (Brandel Instruments, Unterföhring, Germany). The filter bound radioactivity was counted by Packard Tri Carb 2810 TR scintillation counter (Perkin Elmer).
(§5) The protein concentration was determined according to a Bio-Rad method, with bovine albumin as a standard reference. Inhibitory binding constant (Ki) values were calculated from those of IC50 according to the Cheng–Prusoff equation, Ki = IC50/(1 + [C*]/KD*), where [C*] is the concentration of the radioligand, and KD* its dissociation constant. Ki and IC50 values were calculated by non-linear regression analysis, using the equation for a sigmoid concentration-response curve (Graph-PAD Prism, San Diego, CA, USA).

hA1AR [2] = target: T3, hA1AR (Homo sapiens, UniProt P30542); test: Competition binding, [3H]DPCPX, hA1 CHO cell membranes; settings: displacement of [3H]DPCPX, hA1 CHO cells; mean ± SEM of four assays
T3 construct: host or cells: CHO cells
T3 sequence (P30542 1-326): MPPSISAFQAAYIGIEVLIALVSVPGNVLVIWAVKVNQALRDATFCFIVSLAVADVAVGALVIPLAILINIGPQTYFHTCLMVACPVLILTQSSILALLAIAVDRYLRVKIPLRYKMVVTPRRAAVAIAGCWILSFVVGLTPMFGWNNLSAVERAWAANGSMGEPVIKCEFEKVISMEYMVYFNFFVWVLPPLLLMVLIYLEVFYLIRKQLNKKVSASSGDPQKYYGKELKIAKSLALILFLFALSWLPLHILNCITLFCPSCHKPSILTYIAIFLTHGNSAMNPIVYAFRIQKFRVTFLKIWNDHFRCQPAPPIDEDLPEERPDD
Experimental: as §2, §4, §5

hA2AAR = target: T4, hA2AAR (Homo sapiens, UniProt P29274); test: Competition binding, [3H]ZM241385, hA2A CHO cell membranes; settings: for Ki: displacement of [3H]ZM241385, hA2A CHO cells, mean ± SEM of four assays
T4 construct: host or cells: CHO cells
Experimental: as §2, §4, §5

hA1AR [3] = target: T3, hA1AR; test: Modulation of Forskolin-stimulated cAMP levels in hA1 CHO cells; format: cell-based; settings: for IC50: footnote d, vs CCPA 10 nM; for hA1AR Efficacy: normalized: CCPA full agonist = 100%, DPCPX inverse agonist = −100%; for hA1AR Profile: pharmacological profile in cAMP assay
Experimental: as §1, §2, §3

hA2B AR [4] = target: T1, hA2B AR; set-up: method as in PMID 15239649; settings: in comparison with NECA; ref [2]; cited from earlier work

T4 sequence (P29274 whole entry): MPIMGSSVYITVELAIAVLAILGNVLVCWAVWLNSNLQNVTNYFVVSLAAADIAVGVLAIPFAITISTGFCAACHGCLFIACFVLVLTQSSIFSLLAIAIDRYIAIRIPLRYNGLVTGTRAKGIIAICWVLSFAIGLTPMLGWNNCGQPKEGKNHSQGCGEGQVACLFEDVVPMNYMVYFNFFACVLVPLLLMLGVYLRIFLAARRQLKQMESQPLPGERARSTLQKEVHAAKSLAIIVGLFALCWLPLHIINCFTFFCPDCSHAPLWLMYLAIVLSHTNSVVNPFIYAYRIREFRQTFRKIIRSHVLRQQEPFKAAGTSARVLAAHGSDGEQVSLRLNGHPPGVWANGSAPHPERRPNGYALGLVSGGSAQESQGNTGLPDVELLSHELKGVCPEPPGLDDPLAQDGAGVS

Row | Compound | Emax at 1 µM (hA2B AR [1]) | EC50 (hA2B AR [1]) | Ki (hA3AR) | Ki (hA1AR [2]) | Ki (hA2AAR) | melting point | IC50 (hA1AR [3]) | hA1AR Efficacy (hA1AR [3]) | hA1AR Profile (hA1AR [3]) | inhibition at 1 µM (hA3AR) | EC50 (hA1AR [3]; footnote c, mean ± SEM of four experiments, read-out: hA1AR EC50 or IC50, potency to modulate Forskolin-stimulated cAMP levels) | inhibition at 1 µM (hA2AAR; 1 µM compound, [3H]ZM241385 binding, read-out: I% hA2A (percentage of inhibition)) | Efficacy hA2B (cAMP assay) (hA2B AR [4])
1 | COc1ccc(-c2c(C#N)c(N)nc(SCc3ncc[nH]3)c2C#N)cn1 [Compound 9, 2′-Amino-6′-[(1H-imidazol-2-ylmethyl)sulfanyl]-6-methoxy-3,4′-bipyridine-3′,5′-dicarbonitrile] | 7% | > 1 µM | 0.798 ± 0.072 µM | 0.00271 ± 0.00018 µM | 0.377 ± 0.032 µM | 232 to 233 °C |  |  |  |  |  |  | 
2 | Cl.N#Cc1c(N)nc(SCc2cnc[nH]2)c(C#N)c1-c1ccco1 [Compound 11, 2-Amino-4-(furan-2-yl)-6-[(1H-imidazol-5-ylmethyl)sulfanyl]pyridine-3,5-dicarbonitrile hydrochloride] | 4% | > 1 µM | 0.849 ± 0.074 µM | 0.051 ± 0.004 µM | 0.442 ± 0.037 µM | 147 to 148 °C | 0.125 ± 0.011 µM | 0.82 ± 0.07% | Antagonist |  |  |  | 
3 | N#Cc1c(N)nc(NCc2ncc[nH]2)c(C#N)c1-c1ccco1 [Compound 12, 2-Amino-4-(furan-2-yl)-6-[(1H-imidazol-2-ylmethyl)amino]pyridine-3,5-dicarbonitrile] | 3% | > 1 µM |  | 0.315 ± 0.028 µM | 0.157 ± 0.014 µM | 265 to 266 °C | 0.768 ± 0.067 µM | 1.31 ± 0.11% | Antagonist | 16% |  |  | 
4 | N#Cc1c(N)nc(NCCc2c[nH]cn2)c(C#N)c1-c1ccco1 [Compound 13, 2-Amino-4-(furan-2-yl)-6-{[2-(1H-imidazol-4-yl)ethyl]amino}pyridine-3,5-dicarbonitrile] | 9% | > 1 µM |  | 0.174 ± 0.014 µM | 0.125 ± 0.01 µM | 242 °C (dec.) |  |  |  | 6% |  |  | 
5 | N#Cc1c(N)nc(SCC(=O)NCc2cnc[nH]2)c(C#N)c1-c1ccco1 [Compound 15, 2-{[6-Amino-3,5-dicyano-4-(furan-2-yl)pyridin-2-yl]sulfanyl}-N-(1H-imidazol-5-ylmethyl)acetamide] | 1% | > 1 µM | 0.758 ± 0.066 µM | 0.378 ± 0.026 µM | 0.225 ± 0.018 µM | 269 to 270 °C |  |  |  |  |  |  | 
6 | N#Cc1c(N)nc(SCC(=O)NCCc2cnc[nH]2)c(C#N)c1-c1ccco1 [Compound 16, 2-{[6-Amino-3,5-dicyano-4-(furan-2-yl)pyridin-2-yl]sulfanyl}-N-[2-(1H-imidazol-5-yl)ethyl]acetamide] | 1% | > 1 µM |  | 0.03 ± 0.003 µM | 0.138 ± 0.011 µM | 223 to 226 °C |  | −43 ± 4% | Inverse Agonist | 30% | 0.059 ± 0.004 µM |  | 
7 | N#Cc1c(NC2CCCC2)nc(SCc2ncc[nH]2)c(C#N)c1-c1ccco1 [Compound 18] | 2% | > 1 µM | 0.279 ± 0.021 µM | 0.393 ± 0.032 µM | 0.138 ± 0.011 µM | 221 to 222 °C |  |  |  |  |  |  | 
8 | N#Cc1c(NC2CC2)nc(SCc2ncc[nH]2)c(C#N)c1-c1ccco1 [Compound 19] | 13% | > 1 µM |  | 0.292 ± 0.026 µM |  | 241 to 242 °C |  |  |  | 18% |  | 1% | 
9 | N#Cc1c(SCc2ncc[nH]2)nc(N2CCCC2)c(C#N)c1-c1ccco1 [Compound 20] | 8% | > 1 µM | 0.118 ± 0.011 µM | 0.041 ± 0.003 µM | 0.089 ± 0.007 µM | 232 to 234 °C |  |  |  |  |  |  | 
10 | N#Cc1c(N)nc(SCc2ncc[nH]2)c(C#N)c1-c1ccccc1 [LUF5833, 2-amino-6-[(1H-imidazol-2-ylmethyl)sulfanyl]-4-phenylpyridine-3,5-dicarbonitrile] |  |  |  |  |  |  |  |  |  |  |  |  | 81%
